Biological target: T1, Folate Uptake Transporter (PCFT) in Caco2 cells (Homo sapiens, UniProt Q96NT5)
T1 construct: These cells express high levels of the PCFT/SLC46A1 receptor; host or cells: Caco-2
T1 sequence (Q96NT5 1-459): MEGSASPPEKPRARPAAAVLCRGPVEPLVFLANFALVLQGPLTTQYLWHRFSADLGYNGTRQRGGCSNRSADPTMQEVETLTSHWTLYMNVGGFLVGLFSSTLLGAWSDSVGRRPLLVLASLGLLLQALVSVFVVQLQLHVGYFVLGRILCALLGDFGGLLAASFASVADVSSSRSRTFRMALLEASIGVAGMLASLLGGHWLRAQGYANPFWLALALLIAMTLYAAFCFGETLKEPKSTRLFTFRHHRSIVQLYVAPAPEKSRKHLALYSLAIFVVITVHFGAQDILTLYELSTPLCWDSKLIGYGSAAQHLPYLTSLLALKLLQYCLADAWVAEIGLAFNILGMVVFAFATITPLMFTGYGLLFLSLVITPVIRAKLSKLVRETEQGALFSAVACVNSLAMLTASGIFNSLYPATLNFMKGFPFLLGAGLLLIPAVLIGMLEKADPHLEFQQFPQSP
Experiment: Folate uptake transporter substrate assessment in Caco2 cell line (compound uptake with and without pemetrexed)
Type: in vitro ADME
Description: Cell Plates were Prepared According to the Methods of Example 8 Using Caco-2 Cells from American Type Culture Collection at Passage 37.
The transport buffer (HBSS with 10 mM MES, pH 5.5) was prepared by weighing 1.952 g of MES and 0.35 g sodium hydrogen carbonate and adding into 900 mL of pure water followed by sonication to dissolve the content. Following the transfer of 100 mL of 10×HBSS into the solution. The solution was placed on a stirrer, the pH was slowly adjusted with hydrochloric acid to 5.5, and then the solution was filtered to get HBSS solution (with 10 mM MES, pH 5.5).
The test compounds and folic acid (1 μM) substrate solutions were prepared by diluting with pH 5.5 buffer. Next, the test compounds and folic acid (1 μM) substrate solution+positive control inhibitor (pemetrexed, 50 μM) were prepared. For the solution without inhibitor, DMSO was diluted with corresponding substrate solution to get the working incubation solution.
For the solution with inhibitor, the pre-incubation solution was prepared by adding the positive control inhibitor (pemetrexed, 50 μM) in pH 5.5 buffer. For the solution without inhibitor, DMSO was diluted with pH 5.5 buffer and used as the vehicle control.
When the 8-10 day Caco-2 cultured cells reached confluence and were differentiated, they were ready to be used for transport studies. The Caco-2 plate was removed from the incubator, and the medium was removed from the 24-well Plates. Next, cells were washed 3 times with 300 μL of pre-warmed pH 5.5 buffer. Then, 300 μL of pre-incubation solution was added into each well and the plate was placed at 37° C. for 30 minutes. The assay was performed in duplicate. After 30 minutes pre-incubation, the pre-incubation solution was aspirated, and 300 μL of pre-warmed working incubation solution was added to start the transporter assay. After 6 minutes incubation, cells were washed by quickly adding/aspirating 300 μL of ice-cold pH 5.5 buffer 4 times. The pH 5.5 buffer was removed and 300 μL of pure water was added into each well. Freeze-thaw in liquid nitrogen and 37° C. incubator was repeated for 3 times to lyse cells. After, centrifugation at 3,300 g was performed for 30 seconds. Next, 50 μL of supernatant was transferred to 200 μL methanol or acetonitrile containing internal standard and centrifuged at 3,300 g for 30 minutes. 200 μL aliquots of the supernatants were used for LC-MS/MS analysis. Standards were treated the same as samples.
A BCA Kit was used to determine the protein content for each well. Bovine serum albumin at 2, 1, 0.5, 0.25, 0.125, 0.0625, 0.0313, 0.0156, 0.00781 and 0.00391 mg/mL was prepared in Phosphate Buffer Saline (PBS, pH 7.4). 10 μL of supernatant was mixed from the previous step with the same volume of PBS. 20 μL of standard or test sample was added into 96-well clear plate and mixed with 200 μL working reagent. After 30 minutes incubation at 37° C., the absorbance at 562 nm was measured on the microplate reader.
Standard-curves: prepared 200 μM DMSO Folic acid solution, samples of 1000 nm, 300 nm, 100 nm, 30 nM, and 10 nM prepared using a PH 5.5 buffer, and a PH 5.5 buffer containing 50 μM of pemetrexed, respectively.
All calculations were carried out using Microsoft Excel. Peak areas were determined from extracted ion chromatograms. Uptake rate, in unit of pmol/mg protein/min, is calculated using the following equation: Uptake rate=Conc./(Protein×Time); Conc. is concentration of drug in cell lysate (nM), Protein is the protein concentration of cell lysate (mg/mL), and Time is the incubation time (minute). Uptake ratio is calculated using the following equation: Uptake ratio=Uptake rate without inhibitor/Uptake rate with inhibitor. Note: The compound was considered as a potential substrate of a particular transporter when the uptake ratio was greater than 2.

- cell permeability (Caco-2): least permeable
- Uptake Ratio(−Inhibitor/+Inhibitor) (human, Caco-2, 6 min, 1 μM, pH 5.5): 0.76
SMILES: CC(=O)N1CCC(C(=O)N2CCN3C(=O)c4cc(-c5ccccc5)ccc4NC(=O)C3C2)CC1 (centres unmarked) [MPOL_B_1, 2-(1-acetylpiperidine-4-carbonyl)-8-phenyl-1,3,4,12a-tetrahydrobenzo[e]pyrazino[1,2-a][1,4]diazepine-6,12(2H,11H)-dione]

Reference: patent US20250002492A1, “COMPOSITIONS OF FOLATE ABSORPTION INHIBITORS AND METHODS THEREOF” (THE TEXAS A&M UNIVERSITY SYSTEM, priority 2023, published 2025)
